Source: BindingDB's records for patent US20240043440 (Case Western Reserve University, 2024)

Biological target: T1, 15-hydroxyprostaglandin dehydrogenase [NAD(+)] (Homo sapiens, UniProt P15428)
T1 sequence (P15428 whole entry): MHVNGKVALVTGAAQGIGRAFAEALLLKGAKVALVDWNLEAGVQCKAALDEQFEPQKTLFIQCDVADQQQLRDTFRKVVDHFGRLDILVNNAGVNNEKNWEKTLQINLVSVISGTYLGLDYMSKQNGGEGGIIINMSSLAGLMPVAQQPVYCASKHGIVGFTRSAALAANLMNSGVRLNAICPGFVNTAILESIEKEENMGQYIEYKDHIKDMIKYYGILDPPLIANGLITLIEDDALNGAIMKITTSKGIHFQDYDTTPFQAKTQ
Experiment: In vitro Assay (5 nM)
Method: Each compound for inhibiting enzymatic activity of recombinant 15-PGDH (5 nM) in an in vitro assay.

| IC50 | SMILES |
| --- | --- |
| 3 nM | CCCC[S+]([O-])c1sc2nc(-c3cnn(C)c3)cc(-c3ccccc3)c2c1N (centres undefined) [US20240043440, Example 24] |
| 1.4 nM | CCCC[S@@+]([O-])c1sc2nc(-c3nccs3)cc(-c3nccn3CC)c2c1N [US20240043440, Example 29] |
| 1.6 nM | CCCC[S+]([O-])c1sc2nc(-c3ccccc3)cnc2c1N (centres undefined) [US20240043440, Example 27] |
| 2.4 nM | CCCC[S+]([O-])c1sc2nc(-c3cccnc3)cc(-c3ccccc3)c2c1N (centres undefined) [US20240043440, Example 19] |
